Holding throughout (type): cell-based
One test relates to SCLC cell lines. Nature of the test: Growth inhibition of SCLC cell lines by CDC7 inhibitors, correlation with CDC7 mRNA and protein expression. The conditions noted are these: array of SCLC cell lines, Spearman's test. The text has this: FIG. 1A: CDC7 mRNA expression in cell lines derived from different tumor types. The data was obtained from CCLE through UCSC Xenabrowser portal (https://xenabrowser.net/) in December 2020. Lines indicate the median CDC7 mRNA expression in SCLC cell lines. FIG. 1B: CDC7 protein expression assessed by IHC in NSCLC (N=58) and SCLC (N=45) clinical samples. Protein expression is shown as IHC score. H-score medians and standard deviation are shown. FIG. 1C: Western blot showing CDC7 KO in H82 (SCLC-N) and H146 (SCLC-A) SCLC cell lines. Proliferation (FIG. 1D) and soft agar colony formation (FIG. 1E) assays in isogenic H82 and H146 cell lines with CDC7 KO. In FIG. 1D, lower line graphs correspond to CDC7 KO (sgCDC7). FIG. 1F: Ectopic overexpression of CDC7 in H69 (SCLC-A) and DMS114 (SCLC-Y) SCLC cell lines. Proliferation (FIG. 1G) and soft agar colony formation (FIG. 1H) assays in isogenic H69 and DMS114 cell lines with ectopic CDC7 overexpression. […] FIG. 1I: Bivariate correlation of CDC7 mRNA and protein expression with simurosertib or LY3143921 sensitivity (assessed as growth inhibition) in an array of SCLC cell lines. Correlation was calculated with Spearman's test. […]
Cytotoxic assays were performed as described in ^19. […] Viability was assessed with the CellTiter-Glo 2.0 Assay (Promega, G9242) as indicated by manufacturer. […]

The subject of the next test is 22PC (PRAD) cells. Nature of the test: Viability of control and TP53/RB1-loss 22PC cells treated with simurosertib. Conditions: 0.5 μM; double TP53/RB1 loss versus control or single gene loss. From the text:
(§1) CDC7 mRNA (FIG. 3A) and protein (FIG. 3B) expression in lung tumor clinical specimens, categorized as control never transformed adenocarcinomas (LUAD), transforming adenocarcinomas (T-LUAD) and small cell carcinomas (T-SCLC) and control de novo small cell carcinomas (SCLC). For FIG. 3B, H-score medians and standard deviation are shown. FIG. 3C: CDC7 mRNA expression in PRAD tumors with or without NE features. Data from Abida et al., PNAS 2019. FIG. 3D: CDC7 protein expression in PRAD and NEPC clinical specimens, as assessed by IHC. H-score medians and standard deviation and representative images (FIG. 3E) are shown. […] FIG. 3G: In vivo treatment of Lx1042 (T-SCLC) and LuCAP49 (NEPC) PDXs was conducted to compare the efficacy of the combination of cisplatin and simurosertib versus that of cisplatin and etoposide. Student's t-test was performed to assess statistical significance (two-tailed, assuming heterogeneous value distribution) p-value legend: *<0.05, **<0.01, ***<0.001. FIG. 3H: CDC7 mRNA expression in adenocarcinoma clinical specimens, categorized by their TP53/RB1 status. Data obtained from LUAD TCGA (PanCancer), LUAD OncoSG (OncoSG, Nat Genetics 2020) and PRAD TCGA (PanCancer). […]
(§2) Cytotoxic assays were performed as described in ^19. […] Viability was assessed with the CellTiter-Glo 2.0 Assay (Promega, G9242) as indicated by manufacturer.

Another test deals with H1563 (LUAD) cells. Nature of the test: Viability of control and TP53/RB1-loss H1563 cells treated with simurosertib. The conditions noted are these: 0.5 μM; double TP53/RB1 loss versus control or single gene loss.
Source text: as §1, §2

Each structure is given as a SMILES string.

Turning to `Cc1n[nH]cc1-c1cc2nc([C@@H]3CC4CCN3CC4)[nH]c(=O)c2s1` [simurosertib], the “sensitivity correlation with CDC7 mRNA and protein expression” value in the test on SCLC cell lines is “correlated with CDC7 mRNA and protein expression”. Besides, the simurosertib sensitivity entry in the test with 22PC (PRAD) cells and in the test with H1563 (LUAD) cells was “increased simurosertib sensitivity” each time.

Values taken from patent publication US20260325520A1, “METHODS FOR TREATING OR PREVENTING NEUROENDOCRINE TUMR FORMATION USING CDC7 INHIBITORS” (Memorial Sloan-Kettering Cancer Center, priority 2022, published 2026).
